The source of these data is ChEMBL document CHEMBL4619706, “Synthesis, biological evaluation and molecular modeling study of [1,2,4]-Triazolo[4,3-c]quinazolines: New class of EGFR-TK inhibitors” (Bioorg Med Chem, 2020).

For one assay, the system named is HepG2. The experiment in a line: Anticancer activity against human HepG2 cells assessed as inhibition of cell growth incubated for 24 hrs by MTT assay. Conditions: HepG2, 24 h. Type of assay: functional, cell-based. For orientation: Formazan colour is commonly taken as a measure of viable cells.
In assay [1] the test system is MCF7. The assay can be described thus: Anticancer activity against human MCF7 cells assessed as inhibition of cell growth incubated for 24 hrs by MTT assay. Type of assay: functional, cell-based. Conditions: MCF7, 24 h.
For another assay, the system named is PC-3. The assay can be described thus: Anticancer activity against human PC3 cells assessed as inhibition of cell growth incubated for 24 hrs by MTT assay. Type of assay: functional, cell-based. Conditions: PC-3, 24 h.
The next assay concerns HCT-116. The experiment in a line: Anticancer activity against human HCT116 cells assessed as inhibition of cell growth incubated for 24 hrs by MTT assay. Type of assay: functional, cell-based. To be noted: HCT-116, 24 h.
For the next assay, the system named is HeLa. The assay can be described thus: Anticancer activity against human HeLa cells assessed as inhibition of cell growth incubated for 24 hrs by MTT assay. Type of assay: functional, cell-based.
Assay [2] concerns the target Epidermal growth factor receptor (Homo sapiens, UniProt P00533). The assay can be described thus: Inhibition of human EGFR-TK using PTK substrate after 40 mins in presence of ATP by Kinase-Glo luminescent assay. Background: In Kinase-Glo more light means more ATP remaining.
Assay [3] concerns MCF7. The experiment in a line: Induction of apoptosis in human MCF7 cells assessed after 24 hrs by Annexin V-FITC/propidium iodide double staining based FACSCalibur flow cytometry analysis. Type of assay: functional, cell-based.
Assay [4] concerns MCF7. The experiment in a line: Induction of apoptosis in human MCF7 cells assessed as viable cells after 24 hrs by Annexin V-FITC/propidium iodide double staining based FACSCalibur flow cytometry analysis (reference value: 97.89 %). Type of assay: functional. In general terms: A flow cytometer gives signals particle by particle.
For assay [5], the system named is MCF7. The assay can be described thus: Induction of apoptosis in human MCF7 cells assessed as early apoptotic cells after 24 hrs by Annexin V-FITC/propidium iodide double staining based FACSCalibur flow cytometry analysis (reference value: 1.22 %). Type of assay: functional.
Assay [6] deals with MCF7. The assay can be described thus: Induction of apoptosis in human MCF7 cells assessed as late apoptotic cells after 24 hrs by Annexin V-FITC/propidium iodide double staining based FACSCalibur flow cytometry analysis (reference value: 0.43 %). Type of assay: functional.
Assay [7] concerns MCF7. The experiment in a line: Induction of apoptosis in human MCF7 cells assessed as necrotic cells after 24 hrs by Annexin V-FITC/propidium iodide double staining based FACSCalibur flow cytometry analysis (reference value: 0.46 %). Type of assay: functional.
Assay [8] deals with MCF7. The experiment in a line: Induction of apoptosis in human MCF7 cells assessed as cumulative apoptosis after 24 hrs by Annexin V-FITC/propidium iodide double staining based FACSCalibur flow cytometry analysis (reference value: 2.11 %). Type of assay: functional.
Assay [9] deals with MCF7. The experiment in a line: Cell cycle arrest in human MCF7 cells assessed as accumulation of cells at G0/G1 phase at IC50 after 24 hrs by propidium iodide/RNase staining based FACSCalibur flow cytometry analysis (reference value: 57.28 %). Type of assay: functional.
Assay [10] has as its system MCF7. The experiment in a line: Cell cycle arrest in human MCF7 cells assessed as accumulation of cells at S phase at IC50 after 24 hrs by propidium iodide/RNase staining based FACSCalibur flow cytometry analysis (reference value: 26.49 %). Type of assay: functional.
The subject of assay [11] is MCF7. The experiment in a line: Cell cycle arrest in human MCF7 cells assessed as accumulation of cells at G2/M phase at IC50 after 24 hrs by propidium iodide/RNase staining based FACSCalibur flow cytometry analysis (reference value: 16.23 %). Type of assay: functional.
The test system of assay [12] is MCF7. The experiment in a line: Cell cycle arrest in human MCF7 cells assessed as accumulation of cells at pre-G1 phase at IC50 after 24 hrs by propidium iodide/RNase staining based FACSCalibur flow cytometry analysis (reference value: 2.11 %). Type of assay: functional.

Epidermal growth factor receptor, sequence (P00533 whole entry): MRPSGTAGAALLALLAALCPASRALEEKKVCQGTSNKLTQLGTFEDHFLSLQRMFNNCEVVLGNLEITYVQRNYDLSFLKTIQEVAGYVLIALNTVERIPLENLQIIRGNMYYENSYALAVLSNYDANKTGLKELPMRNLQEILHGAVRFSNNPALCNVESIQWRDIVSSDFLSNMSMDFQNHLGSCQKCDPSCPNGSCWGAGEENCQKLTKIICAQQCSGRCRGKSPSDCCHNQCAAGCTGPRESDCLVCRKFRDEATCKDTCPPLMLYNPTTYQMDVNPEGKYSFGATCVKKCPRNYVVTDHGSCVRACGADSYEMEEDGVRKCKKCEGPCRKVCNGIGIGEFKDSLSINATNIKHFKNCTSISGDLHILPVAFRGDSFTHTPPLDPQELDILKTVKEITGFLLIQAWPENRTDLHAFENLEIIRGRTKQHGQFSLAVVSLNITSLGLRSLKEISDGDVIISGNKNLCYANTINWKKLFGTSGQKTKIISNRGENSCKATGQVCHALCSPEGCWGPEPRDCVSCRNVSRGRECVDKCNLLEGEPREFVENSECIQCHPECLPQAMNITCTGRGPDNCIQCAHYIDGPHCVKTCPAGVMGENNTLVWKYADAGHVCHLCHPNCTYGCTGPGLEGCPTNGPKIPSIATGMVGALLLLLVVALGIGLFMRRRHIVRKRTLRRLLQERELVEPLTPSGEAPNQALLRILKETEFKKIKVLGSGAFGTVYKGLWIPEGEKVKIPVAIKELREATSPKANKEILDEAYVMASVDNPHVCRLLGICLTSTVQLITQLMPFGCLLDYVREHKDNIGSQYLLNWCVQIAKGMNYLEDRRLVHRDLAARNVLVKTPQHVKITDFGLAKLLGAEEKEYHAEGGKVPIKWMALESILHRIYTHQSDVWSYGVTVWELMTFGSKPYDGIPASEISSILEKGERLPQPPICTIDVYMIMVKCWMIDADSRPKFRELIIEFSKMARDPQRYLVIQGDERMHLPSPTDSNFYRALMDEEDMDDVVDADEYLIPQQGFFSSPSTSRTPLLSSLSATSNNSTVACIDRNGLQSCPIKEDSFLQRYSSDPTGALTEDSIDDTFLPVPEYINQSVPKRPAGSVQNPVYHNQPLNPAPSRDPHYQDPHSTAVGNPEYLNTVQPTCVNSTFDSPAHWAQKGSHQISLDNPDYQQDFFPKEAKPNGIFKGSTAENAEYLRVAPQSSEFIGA

Regarding `Nc1nc(Nc2nnc3c4ccccc4nc(Sc4ccc(Br)cc4)n23)cs1`, the IC50 with HepG2 turned out to be 10.3 µM; in the assay on MCF7 [1], 8.9 µM; in the assay on PC-3, 10.5 µM; with HCT-116 it was 11.5 µM; with HeLa, 13.4 µM; in assay [2], 0.69 µM. Besides, the Activity entry was “Dose-dependent effect” with MCF7 [3]; 72.85% in the assay with MCF7 [4]; 7.58% in the assay on MCF7 [5]; 17.3% in the assay with MCF7 [6]; 2.27% in the assay with MCF7 [7]; 27.15% in the assay on MCF7 [8]. The Activity in the assay on MCF7 [9] was determined as 35.76%; with MCF7 [10] it was 22.81%; with MCF7 [11], 41.43%; in the assay with MCF7 [12], 27.15%.

The IC50 is the concentration that gives 50% inhibition.
